Experiments:
C. albicans SC5314 = test: Minimal inhibitory concentration (MIC), C. albicans SC5314; assay type: cell-based
Procedure: (§1) C. albicans cells, laboratory strain SC5314 or ATCC90028, were cultured on solid BHI (Oxoid) medium at 37° C. for 24 hours and stored at 4° C. for up to one month. Prior to experiments, a colony of C. albicans was sub-cultured into liquid BHI medium overnight at 37° C.
(§2) C. albicans cells, laboratory strain SC5314 or ATCC90028, were cultured on solid BHI (Oxoid) medium at 37° C. for 24 hours and stored at 4° C. for up to one month. Prior to experiments, a colony of C. albicans was sub-cultured into liquid BHI medium overnight at 37° C. Overnight cultures of C. albicans were adjusted to an optical density at 600 nm of 0.1 and incubated with Amphotericin polymers, which were serially diluted 1:2 from 2500-2.44 μg/ml, for 16 hours in a 96 well plate. The concentration of polymer at which there was no visible growth was determined to be the MIC. C. albicans (Robin) ATCC200955, C. tropicalis ATCC200956, A. flavus ATCC16883 and F. keratoplasticum ATCC36031 were similarly cultured on solid Sabrauds (Oxoid) medium at 37° C. for 24 hours and stored at 4° C. for up to one month. Prior to experiments, colonies were sub-cultured into liquid Sabrauds medium overnight at 37° C. All liquid cultures were static apart from A. flavus which was incubated shaking at 100 rpm.

C. albicans ATCC90028 = test: Minimal inhibitory concentration (MIC), C. albicans ATCC90028; assay type: cell-based
Procedure: as §1, §2

[1] = system: C. albicans (Robin) ATCC200955; test: Minimal inhibitory concentration (MIC), C. albicans ATCC200955; assay type: cell-based; conditions: C. albicans ATCC200955 (Amp-B non-sensitive); Table 3b
Procedure: as §2

C. tropicalis ATCC200956 = test: Minimal inhibitory concentration (MIC), C. tropicalis ATCC200956; assay type: cell-based; conditions: C. tropicalis ATCC200956 (Amp-B non-sensitive); Table 3b
Procedure: as §2, with “Overnight cultures of C. albicans were adjusted to an optical density at 600 nm of 0.1 and incubated with Amphotericin polymers, which were serially diluted 1:2 from 2500-2.44 μg/ml, for 16 hours in a 96 well plate.” left out

[2] = system: Aspergillus flavus ATCC16883; test: Minimal inhibitory concentration (MIC), A. flavus ATCC16883; assay type: cell-based; conditions: A. flavus ATCC 16883
Procedure: as §2

[3] = system: Fusarium keratoplasticum ATCC36031; test: Minimal inhibitory concentration (MIC), F. keratoplasticum ATCC36031; assay type: cell-based; conditions: F. keratoplasticum ATCC 36031
Procedure: as §2

human donor corneas = conditions: 2.5 ma ml^−1, Alamar Blue, p<0.01
Procedure: Epithelial cell/cornea viability was determined using Alamar Blue reagent (5 μg ml^−1) dissolved in PBS. Cells/corneas were incubated with Alamar Blue for 30 minutes and the fluorescence of the solution determined at 570 nm excitation and 585 nm emission (Infinite 200, Tecan). Data for each polymer is presented as percentage viability relative to an untreated control. Each assay was performed in triplicate and data represents the mean±SD from three independent experiments.
The examination of the cytotoxicity was further examined on ex vivo human corneas.

[4] = literature range; cited from earlier work
[5] = physiological pH; stated as well known; cited from earlier work
[6] = system: rabbit limbal epithelial cells; test: Rabbit limbal epithelial cell viability (Alamar Blue); conditions: p<0.01
Procedure: Tissue was immersed in 2.5 mg ml^−1 (w/v) dispase II solution in DMEM for 1 hour at 37° C. The limbal rims were subsequently scraped gently using forceps to remove the epithelial cells. The dispase-cell suspension was centrifuged at 200 g for 5 minutes and re-suspended in culture medium containing DMEM: Ham's F12 (1:1) supplemented with 10% foetal calf serum, 100 U ml^−1 penicillin and 100 U ml^−1 streptomycin, 2.5 μg ml^−1 Amp−B, 5 μg ml^−1 insulin and 10 ng ml^−1 epidermal growth factor. Cells were cultured with irradiated 3T3-mouse fibroblasts at a cell density of 2.4×10^4 cells cm^−2 in culture medium. Cells were not used beyond passage 3. For experiments, cells were seeded into 24 well-plates at 5×10^4 cells per well and cultured for 24 hours.
Prior to determining the viability of rabbit limbal epithelial cells, cells were washed 3× with phosphate-buffered saline (PBS, 0.01M, pH 7.4) to remove residual antimicrobials. […] Epithelial cell/cornea viability was determined using Alamar Blue reagent (5 μg ml^−1) dissolved in PBS. Cells/corneas were incubated with Alamar Blue for 30 minutes and the fluorescence of the solution determined at 570 nm excitation and 585 nm emission (Infinite 200, Tecan). Data for each polymer is presented as percentage viability relative to an untreated control. […]

[7] = from weight based MIC and molar density

C[C@@H]1[C@H](O)[C@@H](C)/C=C/C=C/C=C/C=C/C=C/C=C/C=C/[C@H](O[C@@H]2O[C@H](C)[C@@H](O)[C@H](N)[C@@H]2O)C[C@@H]2O[C@](O)(C[C@@H](O)C[C@@H](O)[C@H](O)CC[C@@H](O)C[C@@H](O)CC(=O)O[C@H]1C)C[C@H](O)[C@H]2C(=O)O [Amp-B, amphotericin B]
Weight based MIC (C. albicans SC5314; Table 3b): 0.4 µg·mL | Molar MIC (C. albicans SC5314; from weight based MIC and molar density of Amp-B groups): 500 µM | Weight based MIC (C. albicans ATCC90028; Table 3b): 0.5 µg·mL | Molar MIC (C. albicans ATCC90028; [7]): 4800 µM | Weight based MIC [1]: >2500 µg·mL | Weight based MIC (C. tropicalis ATCC200956): >2500 µg·mL | Weight based MIC ([2]; Table 3b): 1.5 µg·mL | Molar MIC [2, 7]: 1800 µM | Weight based MIC ([3]; Table 3b): 0.2 µg·mL | Molar MIC [3, 7]: 250 µM | Loss of corneal viability (human donor corneas): approximately 95% | MIC for Amp-B [4]: 0.625 to 4 µg/mL | Solubility in water and saline solution [5]: insoluble | Metabolic activity of cells compared with the cell only control ([6]; 100 μg ml^−1, 24 hours): 42.8±13.9% | Decrease in epithelial cell viability relative to a cell only control ([6]; 1 mg ml^−1, 24 hours): approximately 91.7%

From patent US20210228734A1, “CONJUGATES COMPRISING A TEMPERATURE-RESPONSIVE POLYMER AND A LIGAND CAPABLE OF BINDING ERGOSTEROL” (L V PRASAD EYE INSTITUTE, priority 2018, published 2021)
